Patent US20170137419A1, “DERIVATIVES OF 2H-PYRAZOLO[4,3-C]QUINOLIN-3(5H)-ONE AND USE THEREOF” (UNIVERSITE DU DROIT ET DE LA SANTE LILLE 2, priority 2014, published 2017)
Like-named read-outs stand apart in the source and are kept apart here.

What was measured:
hCB1 = hCB1 (Homo sapiens, UniProt P21554); experiment: Binding affinity hCB1, [3H]-CP-55,940 displacement
Protocol: (§1) Measurement of Affinity. The binding studies were carried out in accordance with the protocols described by El Bakali et al. (El Bakali, J.; Muccioli, G. G.; Renault, N.; Pradal, D.; Body-Malapel, M.; Djouina, M.; Hamtiaux, L.; Andrzejak, V.; Desreumaux, P.; Chavatte, P.; Lambert, D. M.; Millet, R. 4-Oxo-1,4-Dihydropyridines as Selective CB2 Cannabinoid Receptor Ligands: Structural Insights into the Design of a Novel Inverse Agonist Series. J. Med. Chem. 2010, 53, 7918-7931) but applying a small modification. Briefly, the [3H]-CP-55,940 (0.5 nM) chosen as a radioligand for the CB1 and CB2 human receptors is added to 6 μg of membranes resuspended in 550 μl (final volume) of buffer (20 mM Hepes, 5 mM MgCl2, 1 mM EDTA, 0.3% bovine serum albumin, pH 7.4). After 1 hour at 30° C., incubation is stopped and the solution is quickly filtered on Harvester, through the “Unifilter 96 (PerkinElmer)” filter previously saturated with bonding buffer (20 mM Hepes, 5 mM MgCl2, 1 mM EDTA, 0.3% bovine serum albumin, pH 7.4), and then washed 20 times with iced binding buffer without serum albumin. The radioactivity of the filters was measured using the “TopCount NXT Microplate Scintillation Counter (PerkinElmer)” after addition of 60 μl of “MicroScint 40 (PerkinElmer)” scintillation liquid. The experiments were carried out in triplicate. The non-specific binding was determined in the presence of 5 μM (R)-(+)-WIN 55,212-2 (Sigma).
(§2) Analysis of the Data. The values of Ki and EC50 were determined by non-linear regression carried out by the “GraphPad Prism 5.0” program (GraphPad Software, San Diego). The statistical analysis of the results of the [^35S]-GTPγS dosing was carried out by means of the “Student” test.

hCB2 [1] = molecular target: T1, hCB2 (Homo sapiens, UniProt P34972); experiment: Binding affinity hCB2, [3H]-CP-55,940 displacement
Protocol: as §1, §2

hCB2 [2] = molecular target: T1, hCB2; experiment: [35S]-GTPγS functional activity (hCB2); format: biochemical
Protocol: Dosing of [^355]-GTPγS. The studies were carried out at 30° C. in tubes containing 10 μg of protein in 0.5 ml (final volume) of buffer (20 mM Hepes, 10 mM MgCl2, 100 mM NaCl, 0.1% bovine serum albumin, pH 7.4) supplemented with 30 μm of GDP. The dosing was initiated by the addition of [^35S]-GTPγS (0.1 nM, final concentration). After 1 hour at 30° C., the incubation was stopped and the solution was quickly filtered on the “Unifilter-96 GF/B” filter and washed 20 times with iced bonding buffer. The radioactivity on the filters was counted as mentioned above. The non-specific binding was measured in the presence of 100 μm of Gpp(NH)p. The results were expressed in EC50 (nM) and Emax (%).
as §2

colitis caused by TNBS = experiment: Model of colitis caused by TNBS in mice; format: in vivo, C57B16 male mice
Protocol: C57B16 male mice (n=10 per group) have free access to food and water. To cause colitis, the mice are anaesthetised for 90-120 minutes by subcutaneous administration of zylasine-ketamine (50 mg/kg) diluted in physiological serum, then receive an intrarectal administration of TNBS (40 μl, 150 mg/kg) diluted in a 1:1 mixture of 0.9% NaCl and 100% ethanol. The novel CB2 agonists are diluted in 0.5% carboxymethyl cellulose (Sigma-Aldrich, Saint Quentin Fallavier, France) for a dose administered by gavage of 0.1, 1 and 10 mg/kg body weight/day. JWH133, a known CB2 agonist (Kimball E S, Schneider C R, Wallace N H, Hornby P J. Agonists of cannabinoid receptor 1 and 2 inhibit experimental colitis induced by oil of mustard and by dextran sulfate soldium. Am. J. Physiol. Gastrointest. Liver Physiol., 2006, 291, G364-71.), is administered intraperitoneally at a dose of 0.1 mg/kg body weight/day. The animals are euthanised 5 days after the administration of TNBS. The intensity of the colitis at macroscopic and histological levels is assessed in each colon blind by 2 investigators. The scale of the macroscopic scores of the lesions ranges from 0 to 10 according to characteristics reflecting inflammation, such as hyperaemia, thickening of the intestinal wall and the extent of ulcerations. A localised colon biopsy precisely 2 cm above the anal channel is used for histological analysis following a May-Grunwald Giemsa colouring. The histological score varies between 0 and 6 and takes into account the degree of inflammatory infiltrate, the presence of erosion, ulcerations and necrosis of the mucosa, and the level of extension of the lesions in depth and on the surface reached. Two other colon biopsies are frozen and used to analyse the levels of mRNA of inflammatory cytokines by PCR in real time. The total mRNAs of the colon are extracted using the Nucleospin RNAII kit (Macherey Nagel, Hoerdt, France) and then retrotranscripts using the High-Capacity cDNA Reverse Transcription Kit (Applied Biosystems), Foster City, USA). The real-time PCR is carried out with SYBR Green (Applied Biosystems, Foster City, USA). The specific primers for TNF-alpha (TNF-alpha F and TNF-alpha R), IL-1 beta (IL1-beta F and IL1-beta R) and POLR2A (POLR2A F and POLR2A R) as reference gene were chosen using the Primer Express 2 software (Applied Biosystems, Foster City, USA). For the graphical representation of the quantitative PCR data, the values of Ct obtained for the target genes are compared with those of the reference gene, using the ΔΔCt method, that is to say: ΔΔCt=(Ct of the target gene−Ct of the reference gene) treated mouse−(Ct of the target gene−Ct of the reference gene) non-treated mouse, and the final data are derived from 2-ΔΔCt.
Compound 26 was evaluated in mice in a model of colitis caused by TNBS in accordance with a described protocol (Desreumaux, P.; Dubuquoy, L.; Nutten, S.; Peuchmaur, M.; Englaro, W.; Schoonjans, K.; Derijard, B.; Desvergne, B.; Wahli, W.; Chambon, P.; Leibowitz, M. D.; Colombel, J. F.; Auwerx, J. Attenuation of Colon Inflammation Through Activators of the Retinoid X Receptor (RXR)/Peroxisome Proliferator-Activated Receptor Gamma (PPARgamma) Heterodimer. A Basis for New Therapeutic Strtegies. J. Exp. Med. 2001, 193, 827-838). Thus compound 26 was administered orally in carboxymethyl cellulose (CMC) each day at a dose of 0.1, 1 and 10 mg/kg for seven days, and two days before the induction of colitis. A control with an administration of CMC alone was effected.

[3] = Table 2, radioligand [3H]-CP-55,940 0.5 nM, read-out: Binding affinity hCB2 Ki
[4] = Table 3, radioligand [3H]-CP-55,940 0.5 nM, read-out: Binding affinity hCB1 Ki
[5] = Table 2, radioligand [3H]-CP-55,940 0.5 nM, read-out: Binding affinity hCB1 Ki

T1 sequence (P34972 whole entry): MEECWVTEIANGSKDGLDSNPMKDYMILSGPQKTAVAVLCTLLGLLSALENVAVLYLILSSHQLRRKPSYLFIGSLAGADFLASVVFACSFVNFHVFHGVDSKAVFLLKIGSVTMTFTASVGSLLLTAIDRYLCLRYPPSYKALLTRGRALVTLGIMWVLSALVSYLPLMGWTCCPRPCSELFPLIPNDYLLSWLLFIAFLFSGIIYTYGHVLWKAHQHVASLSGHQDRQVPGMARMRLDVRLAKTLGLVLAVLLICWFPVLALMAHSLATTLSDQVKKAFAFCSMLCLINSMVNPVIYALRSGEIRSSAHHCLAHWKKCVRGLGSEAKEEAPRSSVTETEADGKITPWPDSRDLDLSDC
hCB1, sequence (P21554 whole entry): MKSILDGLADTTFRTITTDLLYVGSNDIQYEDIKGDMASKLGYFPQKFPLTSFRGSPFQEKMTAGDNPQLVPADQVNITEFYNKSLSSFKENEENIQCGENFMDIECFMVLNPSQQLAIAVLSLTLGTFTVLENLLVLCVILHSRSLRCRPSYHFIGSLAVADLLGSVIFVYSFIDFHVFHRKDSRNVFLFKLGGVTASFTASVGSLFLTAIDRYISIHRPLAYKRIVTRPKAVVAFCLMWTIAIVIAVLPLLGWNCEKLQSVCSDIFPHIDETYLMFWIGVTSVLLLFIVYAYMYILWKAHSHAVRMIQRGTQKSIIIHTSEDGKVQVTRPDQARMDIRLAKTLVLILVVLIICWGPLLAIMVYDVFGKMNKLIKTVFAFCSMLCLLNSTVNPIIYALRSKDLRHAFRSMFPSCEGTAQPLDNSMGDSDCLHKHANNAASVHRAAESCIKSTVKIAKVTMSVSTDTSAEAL

**Q.** Which results are given for `CCCCCn1cc2c(=O)n(C3CCCCC3)nc-2c2ccccc21` [Compound 16, 2-Cyclohexyl-5-pentyl-2H-pyrazolo[4,3-c]quinolin-3 (5H)-one]?
**A.** Ki (hCB1): > 3000 nM; Ki (hCB2 [1]; [3]): 18.8 ± 3.3 nM; EC50 (hCB2 [2]): 204 ± 41 nM; Emax (hCB2 [2]): 160 ± 3%

**Q.** Which Ki (hCB1) does the source give for `CCCCCCn1nc2c3ccccc3n(CCCCC)cc-2c1=O` [Compound 22, 2-Hexyl-5-pentyl-2H-pyrazolo[4,3-c]quinolin-3(5H)-one] here?
**A.** > 3000 nM

**Q.** And the Ki (hCB2 [1]; [3])?
**A.** 7.7 ± 0.3 nM

**Q.** Which Ki (hCB1; [4]) does the source give for `CCCCCCn1cc2c(=O)n(CC3CCCCC3)nc-2c2ccccc21` [Compound 41, 2-(Cyclohexylmethyl)-5-hexyl-2H-pyrazolo[4,3-c]quinolin-3(5H)-one] here?
**A.** > 10000 nM

**Q.** What about the melting point of the same compound?
**A.** 193 °C

**Q.** And the Ki (hCB2 [1])?
**A.** 31.1 nM

**Q.** Which Ki (hCB1) does the source give for `CCCCCn1cc2c(=O)n(CC3CCCCC3)nc-2c2ccccc21` [Compound 24, 2-(Cyclohexylmethyl)-5-pentyl-2H-pyrazolo[4,3-c]quinolin-3(5H)-one] here?
**A.** > 3000 nM

**Q.** What about the Ki (hCB2 [1]; [3]) of the same compound?
**A.** 0.62 ± 0.03 nM

**Q.** And the EC50 (hCB2 [2])?
**A.** 14.3 ± 4 nM

**Q.** What about the Emax (hCB2 [2]) of the same compound?
**A.** 149 ± 4%

**Q.** For `CCCCCn1cc2c(=O)n(Cc3ccccc3)nc-2c2ccccc21` [Compound 19, 2-Benzyl-5-pentyl-2H-pyrazolo[4,3-c]quinolin-3(5H)-one], which Ki (hCB1) is on record?
**A.** > 3000 nM

**Q.** What about the Ki (hCB2 [1]) of the same compound?
**A.** > 3000 nM

**Q.** For `CCCCCn1cc2c(=O)n(CCC3CCCCC3)nc-2c2ccccc21` [Compound 25, 2-(2-Cyclohexylethyl)-5-pentyl-2H-pyrazolo[4,3-c]quinolin-3(5H)-one], which Ki (hCB1) is on record?
**A.** > 3000 nM

**Q.** What about the Ki (hCB2 [1]; [3]) of the same compound?
**A.** 8 ± 0.4 nM

**Q.** What about the EC50 (hCB2 [2]) of the same compound?
**A.** 5.4 ± 1.1 nM

**Q.** And the Emax (hCB2 [2])?
**A.** 141 ± 3%

**Q.** With `O=c1c2cn(CCCC(F)(F)F)c3ccccc3c-2nn1CC1CCCCC1` [Compound 43, 2-(Cyclohexylmethyl)-5-(4,4,4-trifluorobutyl)-2H-pyrazolo[4,3-c]quinolin-3(5H)-one] as the compound, how does the Ki (hCB1; [4]) read?
**A.** 1680 nM

**Q.** What about the melting point of the same compound?
**A.** 224 °C

**Q.** And the Ki (hCB2 [1])?
**A.** 6.17 nM

**Q.** Which Ki (hCB1; [5]) does the source give for `CCCCCn1cc2c(=O)n(CC3CC3)nc-2c2ccccc21` [Compound 23, 2-(Cyclopropylmethyl)-5-pentyl-2H-pyrazolo[4,3-c]quinolin-3(5H)-one] here?
**A.** > 3000 nM

**Q.** And the Ki (hCB2 [1]; [3])?
**A.** 10.4 ± 3.1 nM

**Q.** Which results are given for `CCCCCn1cc2c(=O)n(CC34CC5CC(CC(C5)C3)C4)nc-2c2ccccc21` [Compound 26, 2-(1-Adamantylmethyl)-5-pentyl-2H-pyrazolo[4,3-c]quinolin-3(5H)-one]?
**A.** Ki (hCB2 [1]; [3]): 0.39 ± 0.03 nM; EC50 (hCB2 [2]): 64 ± 10 nM; Emax (hCB2 [2]): 163 ± 4%; Overall efficacy against colitis (colitis caused by TNBS; oral administration): effective in mice against colitis in a dose-dependent manner; Loss of body weight (colitis caused by TNBS; oral daily treatment 0.1, 1 and 10 mg/kg, five days after TNBS): attenuates in a dose-dependent manner the loss of weight; Macroscopic score (colitis caused by TNBS; oral, 10 mg/kg, scale 0 to 10, printed as 1.7 versus 1.9): 1.7; Mortality / survival rate (colitis caused by TNBS; oral, 0.1, 1 and 10 mg/kg daily, versus untreated mice (FIG. 1A)): reduction in mortality; Macroscopic score (colitis caused by TNBS; oral, 0.1, 1 and 10 mg/kg, colon after euthanasia (FIG. 2A)): reduces the macroscopic scores (FIG. 2A) in a dose-dependent manner; Attenuation of histological scores (colitis caused by TNBS; oral, histological score scale 0 to 6 (FIG. 2B)): 65%

**Q.** For `CCCCCn1cc2c(=O)[nH]nc-2c2ccccc21` [Compound 8, 5-Pentyl-2H-pyrazolo[4,3-c]quinolin-3(5H)-one], which Ki (hCB1; [5]) is on record?
**A.** > 3000 nM

**Q.** And the Ki (hCB2 [1]; [3])?
**A.** > 3000 nM

**Q.** With `CCCCCn1nc2c3ccccc3n(CCCCC)cc-2c1=O` [Compound 21, 2,5-Dipentyl-2H-pyrazolo[4,3-c]quinolin-3(5H)-one] as the compound, how does the Ki (hCB1) read?
**A.** > 3000 nM

**Q.** And the Ki (hCB2 [1]; [3])?
**A.** 4.3 ± 0.3 nM

**Q.** Which results are given for `CCCCn1cc2c(=O)n(CC3CCCCC3)nc-2c2ccccc21` [Compound 40, 2-(Cyclohexylmethyl)-5-butyl-2H-pyrazolo[4,3-c]quinolin-3(5H)-one]?
**A.** Ki (hCB1; [4]): > 10000 nM; melting point: 216 °C; Ki (hCB2 [1]): 14.8 nM

**Q.** Which Ki (hCB2 [1]; [3]) does the source give for `CCCCCn1cc2c(=O)n(CCC34CC5CC(CC(C5)C3)C4)nc-2c2ccccc21` [Compound 27, 2-(1-Adamantylethyl)-5-pentyl-2H-pyrazolo[4,3-c]quinolin-3 (5H)-one] here?
**A.** 26.1 ± 3.8 nM

**Q.** For `O=c1c2cn(CC3CCOCC3)c3ccccc3c-2nn1CC1CCCCC1` [Compound 42, 2-(Cyclohexylmethyl)-5-(tetrahydro-2H-4-pyranylmethyl)-pyrazolo[4,3-c]quinolin-3(5H)-one], which Ki (hCB1) is on record?
**A.** 520 nM

**Q.** What about the melting point of the same compound?
**A.** > 250 °C

**Q.** And the Ki (hCB2 [1])?
**A.** 5.32 nM
